The text below walks through data of patent US12503452B2 (Curza Global, LLC, priority 2019, dated 2025).

Like-named read-outs stand apart in the source and are kept apart here.

Experiment [1] deals with Rabbit Reticulocyte Lysate (eukaryotic protein synthesis). Nature of the experiment: Rabbit reticulocyte lysate luciferase assay (inhibition of eukaryotic protein synthesis). Type of experiment: biochemical. The following applies: class by IC50 or % inhibition @ 1 μM, read-out: Rabbit reticulocyte IC50 (μM/% inhib.). In short, it runs like this: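 Compounds were tested in 8-point 2-fold dilution series for blocking luciferase synthesis in nuclease-treated rabbit reticulocyte lysate (30° C., 90 minutes). Luminescence read-out, corrected by no-RNA background, was expressed as % inhibition against water-only reactions.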

The next experiment has as its system E. faecalis (Ef). Nature of the experiment: Broth microdilution minimum inhibitory concentration (MIC). The following applies: Enterococcus faecalis, E. faecalis, read-out: Ef + bicarb MIC. Type of experiment: cell-based. In short, it runs like this: (§1)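 MICs were run in triplicate per CLSI microdilution (modified, 8 dilution steps), inoculating 5×10^4 CFU/well prepared from colonies grown at 35±2° C to 0.5 McFarland. Media: CAMHB alone, with 6.25 or 25 mM final sodium bicarbonate, or with 0–50% heat-inactivated human serum.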
(In general: In broth dilution the organism is exposed to a series of concentrations in liquid medium.)

A further experiment concerns A. baumannii (Ab). The experiment is described as above. Type of experiment: cell-based. The following applies: Acinetobacter baumannii, A. baumannii, read-out: Ab + bicarb MIC. In outline: as §1
The next experiment concerns S. aureus (Sa). The description is as above. Type of experiment: cell-based. The following applies: Staphylococcus aureus, S. aureus, read-out: Sa + bicarb MIC. In outline:
as §1

Another experiment relates to P. aeruginosa (Pa). Described as above. Type of experiment: cell-based. The settings on record: Pseudomonas aeruginosa, P. aeruginosa, read-out: Pa MIC + bicarb. In short, it runs like this:
as §1

The test system of a further experiment is E. coli (Ec). Described as above. Type of experiment: cell-based. The settings on record: Escherichia coli, E. coli, read-out: E. coli + bicarb MIC. In short, it runs like this:
as §1

The subject of experiment [2] is E. coli S30 extract (bacterial protein synthesis). Kind of experiment: E. coli S30 extract coupled transcription-translation luciferase assay (inhibition of bacterial protein synthesis). The settings on record: class by IC50 or % inhibition @ 1 μM, read-out: S30 IC50 (μM/% inhib.). Type of experiment: biochemical. In outline: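 Luminescent read-out of luciferase made from pBESTluc DNA by E. coli S30 extract after 1 h at 37 °C with compound in an 8-point 2-fold series. Background came from no-DNA reactions. Percent inhibition was calculated against water-only controls.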

Where [3] appears, read: growth medium with sodium bicarbonate.
Setting [4] is: growth medium supplemented with sodium bicarbonate.

For `CC(C)(N)C(=O)N1CCN(C(=O)Nc2ccn(-c3ccc(CCN[C@H]4CC[C@@H](CN)C4)cc3)c(=O)n2)CC1` (stereo in doubt) [Compound 177], the IC50 in experiment [1] and in experiment [2] was above 1 µM throughout. The minimal inhibitory concentration (MIC) (as a rule, the least concentration at which growth counts as inhibited) with E. faecalis (Ef) (setting [3]) was above 32 µg/mL; with A. baumannii (Ab) (setting [3]) it was above 32 µg/mL; in the experiment on S. aureus (Sa) (setting [3]), below 8 µg/mL; in the experiment with P. aeruginosa (Pa) (setting [3]), above 32 µg/mL; in the experiment with E. coli (Ec) (setting [3]), below 8 µg/mL.

Regarding `CN(CCc1ccc(-n2ccc(NC(=O)N3CCN(C(=O)C(C)(C)N)CC3)nc2=O)cc1)[C@H]1CC[C@@H](CN)C1` (stereo in doubt) [Compound 178], the IC50 in experiment [1] and in experiment [2] was above 1 µM each time. Also, the MIC is above 32 µg/mL with E. faecalis (Ef) (setting [3]); above 32 µg/mL in the experiment with A. baumannii (Ab) (setting [3]); 8 to 32 µg/mL in the experiment on S. aureus (Sa) (setting [3]); above 32 µg/mL in the experiment on P. aeruginosa (Pa) (setting [3]); below 8 µg/mL in the experiment on E. coli (Ec) (setting [3]).

Take `CC[C@@H]1CN(Cc2ccc(-n3ccc(NC(=O)N4CCN(C(=O)C(C)(C)N)CC4)nc3=O)cc2)CC[C@H]1N` (stereo in doubt) [Compound 213]: the IC50 in experiment [1] was above 1 µM; in experiment [2], below 0.5 µM. For the same molecule, the minimal inhibitory concentration (MIC) in the experiment on E. faecalis (Ef) (setting [3]) was below 8 µg/mL; with A. baumannii (Ab) (setting [3]), above 32 µg/mL; in the experiment with S. aureus (Sa) (setting [3]), below 8 µg/mL; in the experiment on P. aeruginosa (Pa) (setting [3]), above 32 µg/mL; with E. coli (Ec) (setting [3]), below 8 µg/mL.

In the case of `CC(C)(N)C(=O)N1CCN(C(=O)Nc2ccn(-c3ccc(CCN4CCCC(N)CC4)cc3)c(=O)n2)CC1` (stereo not shown) [Compound 21], the results for the IC50 in experiment [1] and in experiment [2] were above 1 µM and below 0.5 µM, respectively. Further, the MIC in the experiment on E. faecalis (Ef) (setting [4]) was below 8 µg/mL; in the experiment on A. baumannii (Ab) (setting [4]), above 32 µg/mL; with S. aureus (Sa) (setting [4]), below 8 µg/mL; with P. aeruginosa (Pa) (setting [4]) it was 8 to 32 µg/mL; with E. coli (Ec) (setting [4]), below 8 µg/mL.

Consider `CCC(N)C1CCCN(CCc2ccc(-n3ccc(NC(=O)N4CCN(C(=O)C(C)(C)N)CC4)nc3=O)cc2)C1` (stereo not shown) [Compound 23], for which the IC50 in experiment [1] and in experiment [2] was above 1 µM throughout. The MIC in the experiment on E. faecalis (Ef) (setting [4]) was above 32 µg/mL; in the experiment on A. baumannii (Ab) (setting [4]), above 32 µg/mL; with S. aureus (Sa) (setting [4]), 8 to 32 µg/mL; with P. aeruginosa (Pa) (setting [4]), above 32 µg/mL; in the experiment on E. coli (Ec) (setting [4]), below 8 µg/mL.

Regarding `CC(C)(N)C(=O)N1CCN(C(=O)Nc2ccn(-c3ccc(CCN4CCC[C@@H](CN)C4)cc3)c(=O)n2)CC1` [Compound 25], the IC50 was above 1 µM in experiment [1] and 0.5 to 1 µM in experiment [2]. Further, the minimal inhibitory concentration (MIC) with E. faecalis (Ef) (setting [4]) is above 32 µg/mL; with A. baumannii (Ab) (setting [4]) it was above 32 µg/mL; in the experiment with S. aureus (Sa) (setting [4]) it was below 8 µg/mL; with P. aeruginosa (Pa) (setting [4]) it was above 32 µg/mL; in the experiment with E. coli (Ec) (setting [4]) it was below 8 µg/mL.

Consider `CC(C)(N)C(=O)N1CCN(C(=O)Nc2ccn(-c3ccc(CCN4CCC[C@H](CN)C4)cc3)c(=O)n2)CC1` [Compound 26], for which the IC50 in experiment [1] was above 1 µM; in experiment [2], below 0.5 µM. For the same molecule, the minimum inhibitory concentration (MIC) is 8 to 32 µg/mL in the experiment with E. faecalis (Ef) (setting [4]); above 32 µg/mL with A. baumannii (Ab) (setting [4]); below 8 µg/mL in the experiment with S. aureus (Sa) (setting [4]); above 32 µg/mL in the experiment on P. aeruginosa (Pa) (setting [4]); below 8 µg/mL in the experiment with E. coli (Ec) (setting [4]).

Consider `C[C@@H]1CCN(CCc2ccc(-n3ccc(NC(=O)N4CCN(C(=O)C(C)(C)N)CC4)nc3=O)cc2)CC[C@H]1N` [Compound 27], for which the IC50 is above 1 µM in experiment [1] and below 0.5 µM in experiment [2]. The MIC with E. faecalis (Ef) (setting [4]) is below 8 µg/mL; with A. baumannii (Ab) (setting [4]), above 32 µg/mL; in the experiment on S. aureus (Sa) (setting [4]), below 8 µg/mL; in the experiment with P. aeruginosa (Pa) (setting [4]) it was 8 to 32 µg/mL; in the experiment with E. coli (Ec) (setting [4]) it was below 8 µg/mL.

Turning to `CC(C)(N)C(=O)N1CCN(C(=O)Nc2ccn(-c3ccc(CCN4CCCC(NC5CC5)CC4)cc3)c(=O)n2)CC1` (stereo not shown) [Compound 29], the IC50 in experiment [1] and in experiment [2] was above 1 µM each time. Further, the MIC is above 32 µg/mL in the experiment on E. faecalis (Ef) (setting [4]); above 32 µg/mL in the experiment with A. baumannii (Ab) (setting [4]); 8 to 32 µg/mL with S. aureus (Sa) (setting [4]); above 32 µg/mL in the experiment on P. aeruginosa (Pa) (setting [4]); below 8 µg/mL in the experiment with E. coli (Ec) (setting [4]).

As for `CC(C)(N)C(=O)N1CCN(C(=O)Nc2ccn(-c3ccc(CCNC4CCCNCC4)cc3)c(=O)n2)CC1` (stereo not shown) [Compound 30], the IC50 in experiment [1] is above 1 µM; in experiment [2], below 0.5 µM. Besides, the MIC in the experiment on E. faecalis (Ef) (setting [4]) is above 32 µg/mL; with A. baumannii (Ab) (setting [4]), above 32 µg/mL; in the experiment on S. aureus (Sa) (setting [4]), below 8 µg/mL; in the experiment on P. aeruginosa (Pa) (setting [4]), above 32 µg/mL; in the experiment on E. coli (Ec) (setting [4]), below 8 µg/mL.
